Read-outs that look alike come from different tables or passages of the source. Ends that are not written are not given here.
Columns and labels:
[1] = tested on: HIV-1 pseudotyped with wild type Env from strain HXB2 (HOS-CD4 target cells); type: cell-based
Experimental: (§1) All viral infectivity and cell-cell fusion experiments were performed as described in Chan, D., et. al., 1998, Proc. Natl. Acad. Sci. U.S.A. 95, 15613-15617. Briefly, the potency of C-peptides in inhibiting viral infection was determined using recombinant luciferase-expressing HIV-1 as described by Malashkevich, V. N., et. al., 1998, Proc. Natl. Acad. Sci. USA 95, 9134-9139. To produce virus, 293T cells were co-transfected with the envelope-deficient HIV-1 genome NL43LucR-E-(21) and the HXB2 gp160 expression vector pCMVHXB2 gp160 using calcium phosphate. Viral supernatants were cleared of cellular debris by low-speed centrifugation and used to infect HOS-CD4/Fusin cells (N. Landau, National Institutes of Health AIDS Reagent Program) in the presence of varying concentrations of C-peptide, ranging from 0 to 200 nM. Cells were harvested 48 hr postinfection, and luciferase activity was measured in a Wallac (Gaithersburg, Md.) AutoLumat LB953 luminometer. The IC50 is the peptide concentration that results in a 50% decrease in activity relative to control samples lacking peptide. For each peptide, data from three experiments were fit to a Langmuir equation [y=k/(1+([peptide]/IC50)], where y=luciferase activity and k is a scaling constant] to obtain the IC50 values.
(§2) HOS-CD4-Les cells were infected with HIV-1 pseudotyped with Env from HXB2 HIV-1 strain of either the wild type sequence or one of three variant sequences that confer resistance to C-peptides. The sequences of Res1 and Res2 Env, defined in FIG. 1, contain mutations in the gp41 HR1 region that decrease C-peptide binding affinity. The sequence of Res3 contains a mutation in the gp41 HR2 region (N637K) that confers partial resistance by enhancing the rate of viral membrane fusion. The IC50 (±SEM) values represent the mean of 2 or 3 independent titrations of the indicated C-peptide.
(§3) The C37 variants generated were able to overcome resistance conferred by the HR1 region mutations. In FIG. 2, viruses pseudotyped with either wild type Env (closed squares) or V549E mutant Env (Res1, closed circles) from strain HXB2 were utilized to infect HOS-CD4-Les target cells. Infection took place in the presence and absence of C37 (FIG. 2A), C37-KYI (FIG. 2B) or (C37-GC)2 (FIG. 2C) and quantified by the expression of a luciferase-reporter construct. The IC50 values are indicated on the graph. A mutant variant of C37 with two substitutions (N637K and T6391), hereafter denoted C37-KYI, binds to a structural mimic of the gp41 HR1 region, the N-peptide known as N36 with an estimated equilibrium dissociation constant (Kd) of 40 fM, more than 20-fold lower than the Kd for wild type C37 (FIG. 2). The Hr1 and HR2 regions of three gp41 form an intermediate structure called the trimer-of-hairpins which is necessary for the viral entry process and membrane fusion with the host membrane.

[2] = tested on: HIV-1 pseudotyped with V549E mutant Env (Res1, V38E) from strain HXB2; type: cell-based
Experimental: as §1, §2, §3

HIV-1 Res 4 (SDTV) = type: cell-based; settings: Table 2
[3] = tested on: HIV-1 with resistance mutations at the gp41 HR1 region; assay: Viral infectivity, C-peptide-resistant HIV-1 (HR1 region resistance mutations, text statements); type: cell-based
Experimental: as §1, with “values. […]” for “values.”

[4] = tested on: HIV-1 pseudotyped with Res 3 Env (HR2 mutant, N637K), HXB2; type: cell-based
Experimental: as §1, §2

HIV-1 Res 2 (L33S) = type: cell-based; settings: Table 2
Experimental: as §1, §2

HIV entry = settings: read-out: IC50 against HIV entry; cited from earlier work
[5] = tested on: HIV-1 with resistance mutations at the gp41 HR1 region; settings: read-out: IC50 after emergence of resistance mutations; cited from earlier work
[6] = Table 2, read-out: IC50, WT HXB2
[7] = Table 1, HXB2 wild type Env, HOS-CD4-Les cells, mean of 2 or 3 titrations, read-out: IC50 (±SEM), WT Env

| Compound | IC50 [1, 6] | IC50 ([1]; read-out: IC50 against viruses pseudotyped with EnvHXB2) | IC50 ([2]; Table 2, read-out: IC50, Res 1 (V38E)) | IC50 (HIV-1 Res 4 (SDTV)) | fold reduction in inhibitory potency by HR1 region resistance mutations [3] | IC50 ([4]; Table 2, read-out: IC50, Res 3 (N123K/L204I)) | IC50 (HIV-1 Res 2 (L33S)) | IC50 [1, 7] | inhibition of wild type virus compared to monomeric C37 ([1]; in words) | IC50 ([2]; Table 1, HOS-CD4-Les cells, read-out: IC50 (±SEM), Res 1 Env (HR1 mutant)) | IC50 ([4]; Table 1, HOS-CD4-Les cells, read-out: IC50 (±SEM), Res 3 Env (HR2 mutant)) | IC50 (HIV entry) | IC50 [5] |
| --- | --- | --- | --- | --- | --- | --- | --- | --- | --- | --- | --- | --- | --- |
| CC[C@H](C)[C@H](NC(=O)[C@H](CC(C)C)NC(=O)[C@H](CO)NC(=O)[C@H](Cc1c[nH]cn1)NC(=O)[C@@H](NC(=O)[C@H](CC(C)C)NC(=O)[C@H](CO)NC(=O)[C@@H](NC(=O)[C@H](Cc1ccc(O)cc1)NC(=O)[C@H](CC(N)=O)NC(=O)[C@H](CC(N)=O)NC(=O)[C@@H](NC(=O)[C@H](CCC(=O)O)NC(=O)[C@H](CCCNC(=N)N)NC(=O)[C@H](CC(=O)O)NC(=O)[C@H](Cc1c[nH]c2ccccc12)NC(=O)[C@H](CCC(=O)O)NC(=O)[C@H](CCSC)NC(=O)[C@H](Cc1c[nH]c2ccccc12)NC(=O)[C@@H](NC(=O)[C@@H](NC(=O)[C@H](Cc1c[nH]cn1)NC(=O)CNC(=O)CN)[C@@H](C)O)[C@@H](C)O)[C@@H](C)CC)[C@@H](C)O)[C@@H](C)CC)C(=O)N[C@@H](CCC(=O)O)C(=O)N[C@@H](CCC(=O)O)C(=O)N[C@@H](CO)C(=O)N[C@@H](CCC(N)=O)C(=O)N[C@@H](CC(N)=O)C(=O)N[C@@H](CCC(N)=O)C(=O)N[C@@H](CCC(N)=O)C(=O)N[C@@H](CCC(=O)O)C(=O)N[C@@H](CCCCN)C(=O)N[C@@H](CC(N)=O)C(=O)N[C@@H](CCC(=O)O)C(=O)N[C@@H](CCC(N)=O)C(=O)N[C@@H](CCC(=O)O)C(=O)N[C@@H](CC(C)C)C(=O)N[C@@H](CC(C)C)C(=O)NCC(=O)NCC(=O)N[C@@H](Cc1c[nH]cn1)C(=O)N[C@@H](Cc1c[nH]cn1)C(=O)N[C@@H](Cc1c[nH]cn1)C(=O)N[C@@H](Cc1c[nH]cn1)C(=O)N[C@@H](Cc1c[nH]cn1)C(=O)N[C@@H](Cc1c[nH]cn1)C(=O)O [C37] | 1.3 ± 0.2 nM | ~1 nM | 126 ± 24 nM | 53 ± 15 nM | 100 fold | 7.1 ± 3.6 nM | 1.3 ± 0.4 nM |  |  |  |  |  |  |
| (C37-GC)2: Disulfide-crosslinked dimeric C37 variant containing a Cys residue at the peptide's C-terminus (added Gly-Cys) (HTTWMEWDREINNYTSLIHSLIEESQNQQEKNEQELLGC; also: disulfide-crosslinked homodimer via C-terminal Cys) |  |  |  |  |  |  |  | 0.3 nM | not significantly better | 0.3 nM |  |  |  |
| enfuvirtide | 2.3 ± 1 nM |  |  | 900 ± 150 nM |  |  |  | 1.7 ± 0.4 nM |  |  | 6.4 ± 1.5 nM | ~1 nM | > 900 nM |

Reference: patent publication US20100029568A1, “TIGHTER-BINDING C-PEPTIDE INHIBITORS OF HIV-1 ENTRY” (priority 2007, published 2010)
